# Measurements taken from patent US8057792B2, “Use of an antibody that blocks TNF-alpha activity for treating a nerve disorder mediated by nucleus pulposus” (Sciaticon AB, priority 1998, dated 2011).
# Columns and labels:
# [1] = test system: pigs with autologous nucleus pulposus applied to the sacrococcygeal cauda equina; test: Example 6: nerve conduction velocity 3 days after application of nucleus pulposus mixed with inhibitors; assay type: in vivo; conditions: pig; inhibitor mixed with NP before application (100 µg antibody each, 2 mg doxycycline)
# Protocol: Fourteen pigs, (body weight 25-30 kg) received an intramuscular injection of 20 mg/kg body weight of KETALAR® (ketamine 50 mg/ml, Parke-Davis, Morris Plains, N.J.) and an intravenous injection of 4 mg/kg body weight of HYPNODIL® (methomidate chloride 50 mg/ml, AB Leo, Helsingborg, Sweden) and 0.1 mg/kg body weight of STRESNIL® (azaperon 2 mg/ml, Janssen Pharmaceutica, Beerse, Belgium). Anesthesia was maintained by additional intravenous injections of 2 mg/kg body weight of HYPNODIL® and 0.05 mg/kg body weight of STRESNIL®. The pigs also received an intravenous injection of 0.1 mg/kg of STESOLID NOVUM® (Diazepam, Dumex, Helsingborg) after surgery.
# Nucleus pulposus was harvested from the 5th lumbar disc through a retroperitoneal approach. […]
# Three days after the application, the pigs were reanaesthetized by an intramuscular injection of 20 mg/kg body weight of KETALAR® and an intravenous injection of 35 mg/kg body weight of PENTOTHAL® (Thiopental sodium, Abbott lab, Chicago, Ill.). […] Local tissue temperature was continuously monitored and maintained at 37.538.0. degree. […]
# The person performing the neurophysiologic analyzes was unaware of the experimental protocol for the individual animal, and after finishing the complete study the data were arranged in the three experimental groups and statistical differences between the groups were assessed by Student's t-test. […]
# [2] = test system: nucleus pulposus-induced nerve root injury; conditions: previous publications; cited from earlier work
# [3] = test system: pigs with autologous nucleus pulposus placed onto the sacrococcygeal cauda equina; test: Series-3: nerve root conduction velocity 7 days after nucleus pulposus application, systemic TNF inhibitors; assay type: in vivo, pig; conditions: for Effect on nucleus pulposus induced nerve injury: 7 days, systemic treatment; for NCV (m/s +/− SD): pig, 7 days after NP application, infliximab 100 mg i.v. preoperatively, etanercept 12.5 mg s.c. twice
# Protocol: Series-3: Thirteen pigs had autologous nucleus pulposus placed onto their sacrococcygeal cauda equina similar to series-2. Five pigs (body weight 25 kg) received REMICADE® (infliximab) 100 mg i.v. preoperatively, and 8 pigs received ENBREL® (etanercept) 12.5 mg s.c. preoperatively and additionally 12.5 mg s.c. three days after the operation. Seven days after the nucleus pulposus-application the nerve root conduction velocity was determined over the application zone by local electrical stimulation according to series-2. Thirteen pigs had autologous nucleus pulposus placed onto their sacrococcygeal cauda equina similar to series-2. Five pigs (bodyweight 25 kg) received the human/murine monoclonal antibody, REMICADE® (infliximab, […]) 100 mg i.v. preoperatively, and 8 pigs received ENBREL® (etanercept, Centocor B.V., Leiden, the Netherlands) 12.5 mg s.c. preoperatively and additionally 12.5 mg s.c. three days after the operation. Seven days after the nucleus pulposus-application the nerve root conduction velocity was determined over the application zone by local electrical stimulation according to series-2. […] No non-treated animals were included in the series-3 due to the pre-existing knowledge of nerve conduction velocity after seven days of either nucleus pulposus or fat (control) application. The statistical difference between the groups, infliximab, and etanercept, nucleus pulposus without treatment (positive control from previous data) and application of retroperitoneal fat (negative control from previous data) was assessed by using ANOVA and Fisher's PLSD at 5%.
Compound,Block of nucleus pulposus-related effects [2],Effect on nucleus pulposus induced nerve injury [3],NCV (m/s +/− SD) [3],other results
"C[C@H]1c2cccc(O)c2C(=O)C2=C(O)[C@]3(O)C(=O)C(C(N)=O)=C(O)[C@@H](N(C)C)[C@@H]3[C@@H](O)[C@@H]21 [Doxycycline, doxycycline]",,,,Nerve conduction velocity (m/s) 3 days after application [1]: 53 +/− 22 m/s
COc1ccc2c(c1)c(CC(=O)O)c(C)n2C(=O)c1ccc(Cl)cc1 [indomethacin],slightly less efficiently,,,
CCN(CC)CC(=O)Nc1c(C)cccc1C [lidocaine],slightly less efficiently,,,
cyclosporin A,blocked efficiently,,,
etanercept [ENBREL ®],,blocked the nucleus pulposus induced nerve injury efficiently,78 +/− 14 m/s,
infliximab [REMICADE ®],,blocked the nucleus pulposus induced nerve injury efficiently,79 +/− 15 m/s,
